# Tests used:
# Assay in all cases: relative viability (nuclei count vs DMSO), 5 days (fraction); higher = more cells survive
# NCI-H650 = test system: NCI-H650
# Summary of the method: (§1)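 Relative viability is defined as nuclei in treated wells over nuclei in vehicle wells. Duplicate plates were run and medians reported. Lung cancer cell lines in 1536-well plates were dosed by pin tool one day after seeding, with one drug or with a fixed anchor-drug dose plus five library-drug doses (not always all listed) in √10 steps, and nuclei were counted after 5 days.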
# NCI-H441 = test system: NCI-H441
# Summary of the method: as §1
# HCC-44 = test system: HCC-44
# Summary of the method: as §1
# NCI-H1395 = test system: NCI-H1395
# Summary of the method: as §1
# HARA = test system: HARA
# Summary of the method: as §1
# EMC-BAC-2 = test system: EMC-BAC-2
# Summary of the method: as §1
# 201T = test system: 201T
# Summary of the method: as §1
# NCI-H23 = test system: NCI-H23
# Summary of the method: as §1
# NCI-H3122 = test system: NCI-H3122
# Summary of the method: as §1
# NCI-H2023 = test system: NCI-H2023
# Summary of the method: as §1
# NCI-H596 = test system: NCI-H596
# Summary of the method: as §1
smiles,measurement,setting,value
CC(=O)O[C@@]12CO[C@@H]1C[C@H](O)[C@@]1(C)C(=O)[C@H](O)C3=C(C)[C@@H](OC(=O)[C@H](O)[C@@H](NC(=O)OC(C)(C)C)c4ccccc4)C[C@@](O)([C@@H](OC(=O)c4ccccc4)[C@H]21)C3(C)C [Docetaxel] + Cc1cc(Nc2cc(N3CCN(C)CC3)nc(Sc3ccc(NC(=O)C4CC4)cc3)n2)n[nH]1 [Tozasertib] (partner 0.1 µM),relative viability,NCI-H650; first compound 0.002 µM,0.25
same,relative viability,NCI-H650; first compound 0.006325 µM,0.25
same,relative viability,NCI-H650; first compound 0.02 µM,0.182
same,relative viability,NCI-H441; first compound 0.0002 µM,0.634
same,relative viability,NCI-H441; first compound 0.000632 µM,0.489
same,relative viability,NCI-H441; first compound 0.002 µM,0.293
same,relative viability,NCI-H441; first compound 0.006325 µM,0.306
same,relative viability,NCI-H441; first compound 0.02 µM,0.248
same,relative viability,HCC-44; first compound 0.0002 µM,0.93
same,relative viability,HCC-44; first compound 0.000632 µM,0.442
same,relative viability,HCC-44; first compound 0.002 µM,0.41
same,relative viability,HCC-44; first compound 0.006325 µM,0.295
same,relative viability,HCC-44; first compound 0.02 µM,0.158
same,relative viability,NCI-H1395; first compound 0.0002 µM,0.698
same,relative viability,NCI-H1395; first compound 0.000632 µM,0.753
same,relative viability,NCI-H1395; first compound 0.002 µM,0.59
same,relative viability,NCI-H1395; first compound 0.006325 µM,0.372
same,relative viability,NCI-H1395; first compound 0.02 µM,0.325
same,relative viability,HARA; first compound 0.0002 µM,0.0918
same,relative viability,HARA; first compound 0.000632 µM,0.102
same,relative viability,HARA; first compound 0.002 µM,0.0951
same,relative viability,HARA; first compound 0.006325 µM,0.0945
same,relative viability,HARA; first compound 0.02 µM,0.0738
same,relative viability,EMC-BAC-2; first compound 0.0002 µM,0.296
same,relative viability,EMC-BAC-2; first compound 0.000632 µM,0.321
same,relative viability,EMC-BAC-2; first compound 0.006325 µM,0.26
same,relative viability,EMC-BAC-2; first compound 0.02 µM,0.185
same,relative viability,201T; first compound 0.0002 µM,0.937
same,relative viability,201T; first compound 0.000632 µM,0.751
same,relative viability,201T; first compound 0.002 µM,0.581
same,relative viability,201T; first compound 0.006325 µM,0.453
same,relative viability,201T; first compound 0.02 µM,0.325
same,relative viability,NCI-H23; first compound 0.0002 µM,0.39
same,relative viability,NCI-H23; first compound 0.000632 µM,0.314
same,relative viability,NCI-H23; first compound 0.002 µM,0.195
same,relative viability,NCI-H23; first compound 0.006325 µM,0.198
same,relative viability,NCI-H23; first compound 0.02 µM,0.166
same,relative viability,NCI-H3122; first compound 0.0002 µM,0.339
same,relative viability,NCI-H3122; first compound 0.000632 µM,0.278
same,relative viability,NCI-H3122; first compound 0.002 µM,0.217
same,relative viability,NCI-H3122; first compound 0.006325 µM,0.179
same,relative viability,NCI-H3122; first compound 0.02 µM,0.122
same,relative viability,NCI-H2023; first compound 0.0002 µM,0.317
same,relative viability,NCI-H2023; first compound 0.000632 µM,0.288
same,relative viability,NCI-H2023; first compound 0.002 µM,0.11
same,relative viability,NCI-H2023; first compound 0.006325 µM,0.158
same,relative viability,NCI-H2023; first compound 0.02 µM,0.0697
same,relative viability,NCI-H596; first compound 0.0002 µM,0.838
same,relative viability,NCI-H596; first compound 0.000632 µM,0.754
same,relative viability,NCI-H596; first compound 0.002 µM,0.365
same,relative viability,NCI-H596; first compound 0.006325 µM,0.361
same,relative viability,NCI-H596; first compound 0.02 µM,0.25
